Measured values reported in patent publication US20040010001A1, “Methods and compositions for modulating cell proliferation and cell death” (priority 1999, published 2004).
Read-outs that look alike come from different tables or passages of the source.

Experiments:
Format in all cases: cell-based
[1] = tested on: rat lung metastasis cells, monolayers; test: Drug effect in monolayers of rat lung metastasis cells (inhibition of bromodeoxyuridine incorporation); conditions: 96 h, read-out: Concentration producing 50% inhibition
[2] = tested on: Human lung A459; test: FGF-induced resistance, inhibition of BrdU incorporation; conditions: read-out: Drug concentration needed to produce 50% inhibition
Experimental: (§1) Prior to drug treatment, cells were incubated for 4 days with tumor CM or with r-aFGF ad/or r-bFGF-containing medium, supplemented with 1% FBS (final protein concentration adjusted to 2 mg/ml). The medium was renewed every other day.
(§2) The antiproliferative drug effect in histocultures was measured as inhibition of ^3H-thymidine incorporation quantified by autoradiography (Yen, W. C. et al. (1996) Pharm. Res. 13:1305-1312) and, for monolayers, as inhibition of BrdU incorporation or as reduction of total proteins by the sulforhodamine B assay (Au, J. L.-S. et al. (1998) Cancer Res. 58:2141-2148). For the latter, the two assays yielded qualitatively similar results. Cell kill induced by 96-hour drug treatment was monitored by the release of LDH into the culture medium. LDH activity was monitored by the conversion of tetrazolium to formazan (detected at 490 nm).
(§3) The experimental conditions are described briefly below. Cells were pretreated with human recombinant r-aFGF and/or r-bFGF for 96 hours and then with drugs for 96 hours. For the studies on cells derived from the human prostate, lung, pharynx, colon and breast cancer cells, the drug effect was determined by the inhibition of BrdU incorporation. For the study on the human leukemic cells, the drug effect was measured by the MTT assay, which measures the number of metabolically active cells (Alley, M. C. et al (1988) Cancer Res 48:589-601).

[3] = tested on: Human prostate PC3; test: as above; conditions: Homo sapiens, read-out: Drug concentration needed to produce 50% inhibition
Experimental: as §1, §2, §3

[4] = tested on: Human breast BC19 (subline of MCF7 transfected with mdr1); test: as above; conditions: read-out: Drug concentration needed to produce 50% inhibition
Experimental: as §1, §2, §3

[5] = tested on: Human breast MCF7; test: as above; conditions: read-out: Drug concentration needed to produce 50% inhibition
Experimental: as §1, §2, §3

[6] = tested on: Human colon HT-29; test: as above; conditions: read-out: Drug concentration needed to produce 50% inhibition
Experimental: as §1, §2, §3

[7] = tested on: Rat prostate MAT-LyLu; test: as above; conditions: read-out: Drug concentration needed to produce 50% inhibition
Experimental: as §1, §2, §3

[8] = tested on: Human pharynx FaDu; test: as above; conditions: read-out: Drug concentration needed to produce 50% inhibition
Experimental: as §1, §2, §3

[9] = tested on: rat primary tumors, histocultures; test: Drug effect in histocultures of rat primary tumors (inhibition of 3H-thymidine incorporation); conditions: Histocultures, Primary, 96 hours, read-out: Concentration producing 50% inhibition
[10] = tested on: Human prostate PC3 tumor cells; test: aFGF/bFGF-induced resistance and reversal by suramin, sulforhodamine B assay
Experimental: The experimental conditions are described briefly below. […] Cell number was measured using the sulforhodamine B assay which measures the total protein concentration. […] The FGF-induced resistance was dependent on the FGF concentrations, with a higher resistance at higher FGF concentrations.

[11] = tested on: rat lymph node metastasis cells, monolayers; test: Drug effect in monolayers of rat lymph node metastasis cells (inhibition of bromodeoxyuridine incorporation); conditions: 96 h, read-out: Concentration producing 50% inhibition
[12] = tested on: rat primary tumor cells, monolayers; test: Drug effect in monolayers of rat primary tumor cells (inhibition of bromodeoxyuridine incorporation); conditions: 96 h, read-out: Concentration producing 50% inhibition
[13] = 96 h, r-aFGF + r-bFGF 0.04 ± 1 ng/ml
[14] = 96 h, r-aFGF + r-bFGF 0.08 ± 1 ng/ml
[15] = 96 h, r-aFGF + r-bFGF 0.32 ± 1 ng/ml
[16] = 96 h, r-aFGF + r-bFGF 0.64 ± 1 ng/ml
[17] = 96 h, r-aFGF + r-bFGF 1 ± 1 ng/ml
[18] = no suramin, relative to control

IC50 ([1]; Monolayers (passage 0)): 77 ± 2.9 nM | IC50 ([1]; Monolayers (passage 1)): 31.7 ± 8.9 nM | IC50 ([1]; Monolayers (passage 2)): 16.6 ± 1 nM | IC50 ([1]; Monolayers (passage 3)): 8 ± 0.5 nM | IC50 ([2]; A459, 96 h, r-aFGF + r-bFGF 0 ng/ml): 122 nM | IC50 ([2]; A459, 96 h, r-aFGF + r-bFGF 0.04 ± 1 ng/ml): 118 nM | IC50 ([2]; A459, 96 h, r-aFGF + r-bFGF 0.08 ± 1 ng/ml): 159 nM | IC50 ([2]; A459, 96 h, r-aFGF + r-bFGF 0.16 ± 1 ng/ml): 238 nM | IC50 ([2]; A459, 96 h, r-aFGF + r-bFGF 0.32 ± 1 ng/ml): 309 nM | IC50 ([2]; A459, 96 h, r-aFGF + r-bFGF 0.64 ± 1 ng/ml): 386 nM | IC50 ([2]; A459, 96 h, r-aFGF + r-bFGF 1 ± 1 ng/ml): 582 nM | IC50 ([2]; A459, r-aFGF 0 ng/ml): 122 nM | IC50 ([2]; A459, r-aFGF 1 ng/ml): 120 nM | IC50 ([2]; A459, r-aFGF 10 ng/ml): 123 nM | IC50 ([2]; A459, r-aFGF 50 ng/ml): 118 nM | IC50 ([2]; A459, r-bFGF 0 ng/ml): 119 nM | IC50 ([2]; A459, r-bFGF 1 ng/ml): 118 nM | IC50 ([2]; A459, r-bFGF 10 ng/ml): 238 nM | IC50 ([2]; A459, r-bFGF 50 ng/ml): 285 nM | IC50 ([3]; 96 h, r-aFGF + r-bFGF 0 ng/ml): 8.2 nM | IC50 [3, 13]: 8.5 nM | IC50 [3, 14]: 15.2 nM | IC50 [3, 15]: 62.2 nM | IC50 [3, 16]: 84.8 nM | IC50 [3, 17]: 107 nM | IC50 ([3]; 96 h, r-aFGF + r-bFGF): 35.3 nM | IC50 ([3]; r-aFGF 0 ng/ml): 8.2 nM | IC50 ([3]; r-aFGF 1 ng/ml): 8.3 nM | IC50 ([3]; r-aFGF 10 ng/ml): 8.1 nM | IC50 ([3]; r-aFGF 50 ng/ml): 8.4 nM | IC50 ([3]; r-bFGF 0 ng/ml): 8.1 nM | IC50 ([3]; r-bFGF 1 ng/ml): 8.51 nM | IC50 ([3]; r-bFGF 10 ng/ml): 23.8 nM | IC50 ([3]; r-bFGF 50 ng/ml): 50.8 nM | IC50 ([4]; r-bFGF 0 ng/ml): 128 nM | IC50 ([4]; r-bFGF 0.01 ng/ml): 150 nM | IC50 ([4]; r-bFGF 0.1 ng/ml): 270 nM | IC50 ([4]; r-bFGF 1 ng/ml): 407 nM | IC50 ([5]; MCF7, r-bFGF 0 ng/ml): 16.9 nM | IC50 ([5]; MCF7, r-bFGF 0.01 ng/ml): 21.3 nM | IC50 ([5]; MCF7, r-bFGF 0.1 ng/ml): 37.6 nM | IC50 ([5]; MCF7, r-bFGF 1 ng/ml): 595 nM | IC50 ([6]; HT-29, 96 h, r-aFGF + r-bFGF 0 ng/ml): 30.2 nM | IC50 ([6]; HT-29, 96 h, r-aFGF + r-bFGF 0.04 ± 1 ng/ml): 29.1 nM | IC50 ([6]; HT-29, 96 h, r-aFGF + r-bFGF 0.08 ± 1 ng/ml): 30 nM | IC50 ([6]; HT-29, 96 h, r-aFGF + r-bFGF 0.16 ± 1 ng/ml): 30.5 nM | IC50 ([6]; HT-29, 96 h, r-aFGF + r-bFGF 0.32 ± 1 ng/ml): 48.1 nM | IC50 ([6]; HT-29, 96 h, r-aFGF + r-bFGF 0.64 ± 1 ng/ml): 72.7 nM | IC50 ([6]; HT-29, 96 h, r-aFGF + r-bFGF 1 ± 1 ng/ml): 131 nM | IC50 ([6]; HT-29, r-aFGF 0 ng/ml): 30.2 nM | IC50 ([6]; HT-29, r-aFGF 1 ng/ml): 32.1 nM | IC50 ([6]; HT-29, r-aFGF 10 ng/ml): 30.3 nM | IC50 ([6]; HT-29, r-aFGF 50 ng/ml): 30 nM | IC50 ([6]; HT-29, r-bFGF 0 ng/ml): 24.1 nM | IC50 ([6]; HT-29, r-bFGF 1 ng/ml): 24.4 nM | IC50 ([6]; HT-29, r-bFGF 10 ng/ml): 24.5 nM | IC50 ([6]; HT-29, r-bFGF 50 ng/ml): 26.1 nM | IC50 ([7]; r-bFGF 0 ng/ml): 10.3 nM | IC50 ([7]; r-bFGF 1 ng/ml): 18.3 nM | IC50 ([7]; r-bFGF 10 ng/ml): 540 nM | IC50 ([7]; r-bFGF 50 ng/ml): 238 nM | IC50 ([8]; 96 h, r-aFGF + r-bFGF 0 ng/ml): 13.5 nM | IC50 [8, 13]: 13.5 nM | IC50 [8, 14]: 14 nM | IC50 ([8]; 96 h, r-aFGF + r-bFGF 0.16 ± 1 ng/ml): 13.7 nM | IC50 [8, 15]: 14.1 nM | IC50 [8, 16]: 27.5 nM | IC50 [8, 17]: 54 nM | IC50 ([8]; r-aFGF 0 ng/ml): 13.5 nM | IC50 ([8]; r-aFGF 1 ng/ml): 13 nM | IC50 ([8]; r-aFGF 10 ng/ml): 13.7 nM | IC50 ([8]; r-aFGF 50 ng/ml): 14 nM | IC50 ([8]; r-bFGF 0 ng/ml): 14.2 nM | IC50 ([8]; r-bFGF 1 ng/ml): 13.9 nM | IC50 ([8]; r-bFGF 10 ng/ml): 14.1 nM | IC50 ([8]; r-bFGF 50 ng/ml): 13.7 nM | IC50 [9]: 18 ± 11 nM | IC50 ([10]; Homo sapiens, read-out: IC50, Control (drug treatment only, without FGF treatment), No suramin, drug 96 hours): 27.8 nM | IC50 ([10]; Homo sapiens, read-out: IC50, aFGF 0.3 ng/ml + bFGF 1 ng/ml, No suramin, FGF pretreatment 96 hours, drug 96 hours): 145 nM | IC50 ([10]; Homo sapiens, read-out: IC50, aFGF 1 ng/ml + bFGF 3 ng/ml, No suramin, FGF pretreatment 96 hours, drug 96 hours): 281 nM | IC50 ([10]; read-out: IC50, Control (without FGF treatment), Suramin, 15 μM, drug 96 hours with 15 μM suramin): 35.9 nM | IC50 ([10]; read-out: IC50, aFGF 0.3 ng/ml + bFGF 1 ng/ml, With suramin, FGF pretreatment 96 hours, drug 96 hours with 15 micromolar suramin): 29.8 nM | IC50 ([10]; read-out: IC50, aFGF 1 ng/ml + bFGF 3 ng/ml, With suramin, FGF pretreatment 96 hours, drug 96 hours with 15 micromolar suramin): 27.9 nM | IC50 ([11]; Monolayers (passage 0)): 31 ± 2.3 nM | IC50 ([11]; Monolayers (passage 1)): 17.9 ± 1.2 nM | IC50 ([11]; Monolayers (passage 2)): 11 ± 0.4 nM | IC50 ([11]; Monolayers (passage 3)): 7.8 ± 0.5 nM | IC50 ([12]; Monolayers (passage 0)): 8 ± 0.5 nM | IC50 ([12]; Monolayers (passage 1)): 8.6 ± 0.5 nM | IC50 ([12]; Monolayers (passage 2)): 8 ± 0.4 nM | IC50 ([12]; Monolayers (passage 3)): 8 ± 0.2 nM
Structure (SMILES): COc1cccc2c1C(=O)c1c(O)c3c(c(O)c1C2=O)C[C@@](O)(C(=O)CO)C[C@@H]3O[C@H]1C[C@H](N)[C@H](O)[C@H](C)O1 [Doxorubicin]
Resistance, Folds, aFGF 0.3 ng/ml + bFGF 1 ng/ml [10, 18]: 5.23 Folds | Resistance, Folds, aFGF 1 ng/ml + bFGF 3 ng/ml [10, 18]: 10.11 Folds
